Test results as given in patent US20130102595A1 (Curis, Inc., priority 2011, published 2013).

What was measured:
[1] = target: T1, mTor serine/threonine protein kinase (Homo sapiens, UniProt P42345); test: mTor kinase radioisotope assay; assay type: biochemical; conditions: 70 uM ATP, 40 minutes; read-out: m-TOR IC50
T1 construct: FLAG; made in house; host or cells: Baculovirus expression system in Sf21 cells
Experimental: (F) an In Vitro Assay which-Determines the Ability of a Test Compound to Inhibit mTor Serine/Threonine Protein Kinase.
The ability of compounds to inhibit mTor activity was assayed using standard radioisotope assay for kinase. Briefly, FLAG-tagged, recombinant full-length human mTor (GenBank accession No. NM_004958) was expressed using baculovirus expression system in Sf21 cells and purified using antibody affinity column. Purified enzyme was incubated with c-terminal fragment of p70S6K as it's substrate in the presence of ATP. p33 ATP tracers were included in the assay to monitor the enzyme activity. Final assay condition was with 50 mM HEPES pH 7.5, 1 mM EGTA, 0.01% Tween 20, 2 mg/ml substrate, 3 mM Manganese Chloride and 70 uM of ATP and was carried out at room temperature for 40 minutes. The reaction was then stopped by the addition of 3% phosphoric acid solution. 10 ul of the reaction was spotted onto a P30 filtermat and washed three times for 5 minutes in 75 mM phosphoric acid and once in methanol prior to drying and scintillation counting. Different concentrations of compounds were added to reaction to assess the activity of compounds to inhibit mTor kinase. IC50 was calculated using Prism software with sigmoidal dose-response curve fitting.

[2] = system: HDACs (HeLa cell nuclear extracts); test: HDAC enzymatic activity, Biomol Color de Lys system; assay type: biochemical; conditions: 1 hour, 25° C.
Outline: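 IC50 from sigmoidal fit of developer-terminated fluorescence (ex 350-380/em 440-460 nm). Reaction: 1 h at room temperature (25 °C), HeLa nuclear extract as HDAC source, artificial substrate, buffer of 50 mM Tris/Cl pH 8.0 with 137 mM NaCl, 2.7 mM KCl and 1 mM MgCl2.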

WiDr = test: Cell proliferation assay (CellTiter-Glo); assay type: cell-based; conditions: Homo sapiens, Colon, 72 hours, 0.5% fetal bovine serum, read-out: antiproliferative activity IC50, WiDr
Experimental: (§1) Cell Proliferation Assay:
(§2) Cancer cell lines were plated at 5,000 to 10,000 per well in 96-well flat bottomed plates with various concentration of compounds. The cells were incubated with compounds for 72 hours in the presence of 0.5% of fetal bovine serum. Growth inhibition was accessed by adenosine triphosphate (ATP) content assay using Promega CellTiter-Glo kit. Promega CellTiter-Glo kit is an ATP monitoring system based on firefly luciferase. Briefly, 16 μl of mammalian cell lysis and substrate solution was added to 84 μl of culture medium per well to lyse the cells and stabilize the ATP. The mixture was shaken and incubated for 30 minutes and subsequently the luminescence was measured.

H460 = test: Cell proliferation assay (CellTiter-Glo); assay type: cell-based; conditions: Homo sapiens, NCI-H460; NSCLC; 72 hours, 0.5% fetal bovine serum; read-out: antiproliferative activity IC50, H460
Experimental: as §1, §2

HCT116 = test: Cell proliferation assay (CellTiter-Glo); assay type: cell-based; conditions: Homo sapiens, HCT-116; Colon; 72 hours, 0.5% fetal bovine serum; read-out: antiproliferative activity IC50, HCT116
Experimental: as §1, §2

H2122 = test: Cell proliferation assay (CellTiter-Glo); assay type: cell-based; conditions: Homo sapiens, NCI-H2122; NSCLC; 72 hours, 0.5% fetal bovine serum; read-out: antiproliferative activity IC50, H2122
Experimental: as §1, §2

H358 = test: Cell proliferation assay (CellTiter-Glo); assay type: cell-based; conditions: Homo sapiens, NCI-H358; NSCLC; 72 hours, 0.5% fetal bovine serum; read-out: antiproliferative activity IC50, H358
Experimental: as §1, §2

MiaPaca1 = test: Cell proliferation assay (CellTiter-Glo); assay type: cell-based; conditions: Pancreas; 72 hours, 0.5% fetal bovine serum; read-out: antiproliferative activity IC50, MiaPaca1
Experimental: as §1, §2

A549 = test: Cell proliferation assay (CellTiter-Glo); assay type: cell-based; conditions: Homo sapiens, NSCLC, 72 hours, 0.5% fetal bovine serum, read-out: antiproliferative activity IC50, A549
Experimental: as §1, §2

PI3Kα (p110α/p85α) = target: T2, PI3Kα (p110α/p85α) (Homo sapiens, UniProt P42336); test: PI3Kα ADP-Glo assay; assay type: biochemical; conditions: 20 μM PIP2, 10 μM ATP, 30 minutes
T2 construct: GST (N); made in house; host or cells: Baculovirus-infected Sf9 cells
Outline: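 Luminescent ADP-Glo detection, after depletion of residual ATP, quantified ADP made by PI3Kα phosphorylating 20 μM PIP2 at 10 μM ATP. The kinase step ran 30 min at room temperature in HEPES pH 7.4 with MgCl2, DTT and orthovanadate, using baculovirus/Sf9-expressed full-length p110α/p85α complex.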

Calu6 = test: Cell proliferation assay (CellTiter-Glo); assay type: cell-based; conditions: Homo sapiens, Calu-6; NSCLC; 72 hours, 0.5% fetal bovine serum; read-out: antiproliferative activity IC50, Calu6
Experimental: as §1, §2

H292 = test: Cell proliferation assay (CellTiter-Glo); assay type: cell-based; conditions: Homo sapiens, NCI-H292; NSCLC; 72 hours, 0.5% fetal bovine serum; read-out: antiproliferative activity IC50, H292
Experimental: as §1, §2

OPM-2 = test: Cell proliferation assay (CellTiter-Glo); assay type: cell-based; conditions: Homo sapiens, Multiple Myeloma, 72 hours, 0.5% fetal bovine serum, read-out: antiproliferative activity IC50, OPM-2
Experimental: as §1, §2

PI3Kβ (p110β/p85α) = target: T3, PI3Kβ (p110β/p85α) (Homo sapiens, UniProt P42338); test: PI3Kβ ADP-Glo assay; assay type: biochemical; conditions: 20 μM PIP2, 10 μM ATP, 90 minutes
T3 construct: His (N); made in house; host or cells: Baculovirus-infected Sf9 cells
Experimental: (B) an In Vitro Assay which Determines the Ability of a Test Compound to Inhibit PI3Kβ.
Activity of PI3Kβ was measured using ADP-Glo assay from Promega. […], a complex of N-terminal His-tagged recombinant full-length human p110β (GenBank, Accession No. NM_006219) and untagged recombinant full length human p85α (GenBank Accession No. XM—043865) were co-expressed in a Baculovirus infected Sf9 cell expression system. The ADP-Glo assay was performed to measure the amount of ADP generated from ATP hydrolysis coupled with PIP2 phosphorylation by the purified recombinant PI3Kβ (p110β/p85α). PI3Kβ was incubated with 20 μM PIP2 substrate in the reaction buffer (10 mM Tris-HCl, pH 7.5, 50 mM NaCl, 5 mM MgCl2, 10 μM ATP and 0.5% DMSO) for 90 minutes at room temperature. The ADP generated was then detected by ADP-Glo assay from Promega, a luminescent ADP detection assay. The ADP-Glo assay is performed in two steps; first, after the kinase reaction, ADP-Glo Reagent is added to terminate the kinase reaction and deplete the remaining ATP. Second, the Kinase Detection Reagent is added to simultaneously convert ADP to ATP and allow the newly synthesized ATP to be measured using a luciferase/luciferin reaction.

T2 sequence (P42336 whole entry): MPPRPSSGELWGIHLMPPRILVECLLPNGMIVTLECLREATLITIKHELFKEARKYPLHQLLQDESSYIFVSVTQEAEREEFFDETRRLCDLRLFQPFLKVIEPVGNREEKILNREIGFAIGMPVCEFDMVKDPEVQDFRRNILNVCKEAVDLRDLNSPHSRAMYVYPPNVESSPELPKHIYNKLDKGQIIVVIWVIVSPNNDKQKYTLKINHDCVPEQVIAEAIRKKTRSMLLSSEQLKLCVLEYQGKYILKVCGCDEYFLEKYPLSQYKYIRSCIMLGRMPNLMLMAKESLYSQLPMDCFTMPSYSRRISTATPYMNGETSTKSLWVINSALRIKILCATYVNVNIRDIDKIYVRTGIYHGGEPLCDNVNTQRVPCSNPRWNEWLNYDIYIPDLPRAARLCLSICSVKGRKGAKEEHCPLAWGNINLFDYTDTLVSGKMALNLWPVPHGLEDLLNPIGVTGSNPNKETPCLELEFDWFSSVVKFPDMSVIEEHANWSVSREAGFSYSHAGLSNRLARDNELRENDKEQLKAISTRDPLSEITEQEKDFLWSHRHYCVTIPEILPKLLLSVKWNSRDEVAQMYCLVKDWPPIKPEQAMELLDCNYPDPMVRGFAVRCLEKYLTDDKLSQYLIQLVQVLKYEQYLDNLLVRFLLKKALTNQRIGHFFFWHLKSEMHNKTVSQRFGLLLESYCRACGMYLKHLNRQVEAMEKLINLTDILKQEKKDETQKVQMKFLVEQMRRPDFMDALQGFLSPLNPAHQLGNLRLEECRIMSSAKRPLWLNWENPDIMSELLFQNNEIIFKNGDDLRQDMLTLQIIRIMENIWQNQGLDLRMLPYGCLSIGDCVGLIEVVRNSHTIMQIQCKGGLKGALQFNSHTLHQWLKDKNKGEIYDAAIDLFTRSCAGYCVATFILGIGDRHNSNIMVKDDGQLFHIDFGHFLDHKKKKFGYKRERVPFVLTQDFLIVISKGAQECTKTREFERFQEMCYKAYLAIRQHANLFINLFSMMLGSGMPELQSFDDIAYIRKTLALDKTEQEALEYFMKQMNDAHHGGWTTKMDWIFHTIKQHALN
T2 sequence (P27986 whole entry partner): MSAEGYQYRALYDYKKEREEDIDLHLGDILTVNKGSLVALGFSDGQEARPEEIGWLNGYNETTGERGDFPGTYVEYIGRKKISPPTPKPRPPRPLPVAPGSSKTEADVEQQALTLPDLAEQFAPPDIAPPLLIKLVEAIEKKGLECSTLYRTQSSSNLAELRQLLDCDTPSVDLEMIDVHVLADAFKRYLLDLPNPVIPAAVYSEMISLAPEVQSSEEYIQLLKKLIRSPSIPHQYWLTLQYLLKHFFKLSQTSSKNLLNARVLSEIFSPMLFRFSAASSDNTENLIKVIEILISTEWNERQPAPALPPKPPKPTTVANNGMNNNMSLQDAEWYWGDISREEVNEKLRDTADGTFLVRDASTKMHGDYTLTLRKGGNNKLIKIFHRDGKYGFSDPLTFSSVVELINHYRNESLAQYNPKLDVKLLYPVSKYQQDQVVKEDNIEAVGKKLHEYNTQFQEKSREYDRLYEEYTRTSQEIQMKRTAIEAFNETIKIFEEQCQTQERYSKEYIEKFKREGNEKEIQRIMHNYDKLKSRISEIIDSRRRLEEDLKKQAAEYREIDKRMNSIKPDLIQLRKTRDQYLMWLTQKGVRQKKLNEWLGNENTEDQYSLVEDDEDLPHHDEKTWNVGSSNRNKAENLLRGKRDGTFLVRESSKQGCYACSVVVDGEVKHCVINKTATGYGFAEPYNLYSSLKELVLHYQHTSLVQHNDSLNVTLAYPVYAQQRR
T3 sequence (P42338 whole entry): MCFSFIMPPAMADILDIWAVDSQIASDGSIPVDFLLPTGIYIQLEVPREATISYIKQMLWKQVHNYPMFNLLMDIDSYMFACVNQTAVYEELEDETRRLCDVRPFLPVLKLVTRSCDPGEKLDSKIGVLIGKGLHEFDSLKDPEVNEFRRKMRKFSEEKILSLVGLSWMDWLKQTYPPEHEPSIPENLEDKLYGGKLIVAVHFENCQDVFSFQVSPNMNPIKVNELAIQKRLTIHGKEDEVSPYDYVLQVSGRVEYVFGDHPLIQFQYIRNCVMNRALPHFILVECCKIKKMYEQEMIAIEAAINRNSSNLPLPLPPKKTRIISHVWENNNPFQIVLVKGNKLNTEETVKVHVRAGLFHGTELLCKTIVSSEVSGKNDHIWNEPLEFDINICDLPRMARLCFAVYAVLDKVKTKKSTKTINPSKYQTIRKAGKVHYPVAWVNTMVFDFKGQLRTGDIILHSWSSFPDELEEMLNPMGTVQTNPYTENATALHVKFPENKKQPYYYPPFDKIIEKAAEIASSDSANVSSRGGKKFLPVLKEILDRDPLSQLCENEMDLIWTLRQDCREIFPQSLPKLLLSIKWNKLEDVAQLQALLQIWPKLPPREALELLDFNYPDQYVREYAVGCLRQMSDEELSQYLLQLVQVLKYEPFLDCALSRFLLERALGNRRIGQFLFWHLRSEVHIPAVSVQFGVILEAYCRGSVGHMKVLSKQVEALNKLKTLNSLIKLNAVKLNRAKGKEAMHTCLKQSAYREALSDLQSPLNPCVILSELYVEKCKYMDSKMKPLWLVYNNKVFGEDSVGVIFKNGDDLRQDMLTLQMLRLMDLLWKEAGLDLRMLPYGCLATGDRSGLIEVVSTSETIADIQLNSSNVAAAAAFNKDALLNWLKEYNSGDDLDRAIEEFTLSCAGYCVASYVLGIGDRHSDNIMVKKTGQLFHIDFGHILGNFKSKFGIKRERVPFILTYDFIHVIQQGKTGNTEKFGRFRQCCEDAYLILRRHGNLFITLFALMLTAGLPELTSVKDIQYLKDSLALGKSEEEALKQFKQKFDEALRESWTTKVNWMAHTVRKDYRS
T3 sequence (P27986 whole entry partner): as the sequence (P27986 whole entry partner) above

| SMILES | IC50 [1] | IC50 [2] | melting point | IC50 (WiDr) | IC50 (H460) | IC50 (HCT116) | IC50 (H2122) | IC50 (H358) | IC50 (MiaPaca1) | IC50 (A549) | IC50 (PI3Kα (p110α/p85α)) | IC50 (Calu6) | IC50 (H292) | IC50 (OPM-2) | IC50 (PI3Kβ (p110β/p85α)) |
| --- | --- | --- | --- | --- | --- | --- | --- | --- | --- | --- | --- | --- | --- | --- | --- |
| CN(Cc1cc2nc(-c3cc(O)ccc3F)nc(N3CCOCC3)c2s1)c1ncc(C(=O)NO)cn1 [Compound 292, 2-(((2-(2-Fluoro-5-hydroxyphenyl)-4-morpholinothieno[3,2-d]pyrimidin-6-yl)methyl)(methyl)amino)-N-hydroxypyrimidine-5-carboxamide] | < 100 nM | < 100 nM | 250 to 255 °C | 10 to 100 nM | 10 to 100 nM | 10 to 100 nM | 10 to 100 nM | 10 to 100 nM | 10 to 100 nM | 100 to 1000 nM | < 100 nM |  |  |  |  |
| C[C@H](O)c1cccc(-c2nc(N3CCOCC3)c3sc(CN(C)c4ncc(C(=O)NO)cn4)cc3n2)c1 [Compound 296, (S)—N-Hydroxy-2-(((2-(3-(1-hydroxyethyl)phenyl)-4-morpholinothieno[3,2-d]pyrimidin-6-yl)methyl)(methyl)amino)pyrimidine-5-carboxamide] | > 10000 nM | < 100 nM | 168 to 172 °C | < 10 nM | 10 to 100 nM | < 10 nM | 10 to 100 nM | 10 to 100 nM | 10 to 100 nM | 10 to 100 nM | 100 to 1000 nM | 10 to 100 nM | 10 to 100 nM |  |  |
| CN(Cc1cc2nc(-c3cnc(N)nc3)nc(N3CCOCC3)c2s1)c1ncc(C(=O)NO)cn1 [Compound 115, 2-(((2-(2-aminopyrimidin-5-yl)-4-morpholinothieno[3,2-d]pyrimidin-6-yl)methyl)(methyl)amino)-N-hydroxypyrimidine-5-carboxamide] | < 100 nM | < 100 nM | 175 to 181 °C | 100 to 1000 nM |  |  |  |  |  | 10 to 100 nM | < 100 nM | 10 to 100 nM |  | 10 to 100 nM |  |
| CNc1ccc(-c2nc(N3CCOCC3)c3sc(C(=O)NCC4CCN(c5ncc(C(=O)NO)cn5)CC4)cc3n2)cn1 [Compound 308, N-((1-(5-(Hydroxycarbamoyl)pyrimidin-2-yl)piperidin-4-yl)methyl)-2-(6-(methylamino)pyridin-3-yl)-4-morpholinothieno[3,2-d]pyrimidine-6-carboxamide] |  | < 100 nM | 215 to 218 °C | 100 to 1000 nM | 100 to 1000 nM | 100 to 1000 nM | 100 to 1000 nM | 100 to 1000 nM | 100 to 1000 nM | 100 to 1000 nM | < 100 nM |  | 100 to 1000 nM |  |  |
| CN(Cc1cc2nc(-c3cccc(OCCO)c3)nc(N3CCOCC3)c2s1)c1ncc(C(=O)NO)cn1 [Compound 289, 2-({2-[3-(2-Hydroxy-ethoxy)-phenyl]-4-morpholin-4-yl-thieno[3,2-d]pyrimidin-6-ylmethyl}-methyl-amino)-pyrimidine-5-carboxylic acid hydroxyamide] |  | < 100 nM | 148 to 152 °C | < 10 nM | 10 to 100 nM | < 10 nM | < 10 nM | < 10 nM | < 10 nM | 10 to 100 nM | < 100 nM |  | < 10 nM |  |  |
| CN(Cc1cc2nc(-c3ccc(N)cc3Cl)nc(N3CCOCC3)c2s1)c1ncc(C(=O)NO)cn1 [Compound 284, 2-(((2-(4-Amino-2-chlorophenyl)-4-morpholinothieno[3,2-d]pyrimidin-6-yl)methyl)(methyl)amino)-N-hydroxypyrimidine-5-carboxamide] |  | < 100 nM | 179 to 183 °C | 10 to 100 nM | 10 to 100 nM | < 10 nM | < 10 nM | < 10 nM | 10 to 100 nM | 10 to 100 nM | < 100 nM |  |  |  |  |
| O=C(NO)c1cnc(N(CCO)Cc2cc3nc(-c4cccc5[nH]ncc45)nc(N4CCOCC4)c3s2)nc1 [Compound 86, 2-(((2-(1H-indazol-4-yl)-4-morpholinothieno[3,2-d]pyrimidin-6-yl)methyl)(2-hydroxyethyl)amino)-N-hydroxypyrimidine-5-carboxamide] |  | < 100 nM | 190 to 194 °C |  |  |  |  |  |  |  | < 100 nM |  |  |  | < 100 nM |
| CC(O)c1cccc(-c2nc(N3CCOCC3)c3sc(CN(C)c4ncc(C(=O)NO)cn4)cc3n2)c1 (centres unmarked) [Compound 294, N-Hydroxy-2-(((2-(3-(1-hydroxyethyl)phenyl)-4-morpholinothieno[3,2-d]pyrimidin-6-yl)methyl)(methyl)amino)pyrimidine-5-carboxamide] | 100 to 1000 nM | < 100 nM |  | 10 to 100 nM | 10 to 100 nM | < 10 nM | < 10 nM | < 10 nM | < 10 nM | 10 to 100 nM | < 100 nM |  | 10 to 100 nM |  |  |
| CN(Cc1cc2nc(-c3ccc(N)nc3)nc(N3CCOCC3)c2s1)c1ncc(C(=O)NO)cn1 [Compound 110, 2-(((2-(6-aminopyridin-3-yl)-4-morpholinothieno[3,2-d]pyrimidin-6-yl)methyl)(methyl)amino)-N-hydroxypyrimidine-5-carboxamide] | < 100 nM | < 100 nM | 175 to 181 °C | 10 to 100 nM |  |  |  |  |  |  | < 100 nM | 10 to 100 nM |  | < 10 nM |  |
